Read-outs that look alike come from different tables or passages of the source. Where no end group is shown, it is not given here.
Legend:
Ramos cells [1] = type: cell-based, human
Text: (§1) Ramos (CRL-1596; American Type Culture Collection [ATCC]) is a human cell line of GC centroblast-derived BCL that was isolated from a Burkitt’s lymphoma patient, and Daudi (CCL-213; ATCC) is another human BCL cell line of Burkitt’s type. The control human cell lines of K562 (CCL-243; ATCC) and THP-1 (TIB-202; ATCC) wre originated from myelogenous and monocytic leukemia patients, respectively. NIH3T3 (CRL-1658; ATCC) is a mouse cell line of fibroblasts. […] Cells were counted on a hemocytometer (Neubauer; Marienfeld) after staining their aliquot with an equal volume of 0.4% trypan blue solution. All of the cell culture media and their supplements were purchased from Gibco (Thermo Fisher Scientific).
Stock solutions of various peptides, whose syntheses were custom ordered from GenScript via Koma Biotech in Korea, were first prepared by dissolving the lyophilized powder in PBS. Then, their aliquots were serially diluted with PBS to reach the final concentrations required for the experiments. […] To chase the effect of peptide transfection on the cellular proliferation, cells were counted daily on a hemocytometer by staining their aliquot with an equal volume of 0.4% trypan blue solution and finally harvested to analyze the effects of transfected peptide on various molecular events such as protein localization, transcription factor binding, gene expression, and rRNA production. […]

Daudi cells = type: cell-based, human; settings: control peptides added directly to culture media without sodium pyruvate (Figure 6B)
Text: as §1

Ramos cells [2] = type: cell-based, human; settings: control peptides added directly to culture media without sodium pyruvate (Figure 6A)
Text: as §1

[3] = test system: Ramos, Daudi, K562 and THP-1 cells
Method: (§2) For a 2-mL culture of cells in each well of a 6-well plate, 7 μL peptide solution in a concentration of 10 μg/μL in PBS was added directly to the culture media, which were RPMI-1640 supplemented with fetal bovine serum (10%), L-glutamine (1×), nonessential amino acids (1×), penicillin/streptomycin (1×), and 2-mercaptoethanol (50 μM), but not sodium pyruvate. The intrinsic cell membrane permeability of peptide with its N-terminally conjugated FAM fluorophore was checked by observing the peptide-treated cells in a confocal fluorescence microscope (Zeiss) after mounting the washed cells on a microscope slide with a cover glass. It was important that the treated cells be washed well, for example, five times with warm PBS-T (0.01% Tween 20) to remove any nonspecifically adsorbed FAM fluorophore-conjugated peptides. Various custom-ordered peptides with or without the conjugated FAM fluorophore to be used for this direct addition to the cells in culture media as well as for their intravenous injection to the xenografted nude mice as described below were prepared as mentioned above.

[4] = test system: Ramos, Daudi, K562 and THP-1 cells; experiment: Intrinsic cell membrane permeability of FAM-conjugated peptides added directly to culture media (confocal fluorescence microscopy); settings: for intrinsic cell membrane permeability: FAM fluorophore-labeled peptides added directly to Ramos, Daudi, K562 and THP-1 cells in culture media, cells washed with PBS-T, confocal fluorescence (Figure 6); for cell membrane permeability: N-terminally FAM-conjugated peptide added directly to culture media, confocal fluorescence (Figure 5A)
Method: as §2

Compound	proliferation of Crlz-1+ Daudi cells inhibited (Daudi cells)	proliferation of Crlz-1+ Ramos cells inhibited (Ramos cells [2])	intrinsic cell membrane permeability [3]	intrinsic cell membrane permeability [4]	cell membrane permeability ([4]; absence of sodium pyruvate)	other results
O=C([O-])CCN1C(=O)/C(=C/c2ccc(-c3ccc([N+](=O)[O-])cc3)o2)SC1=S.[K+] [KYA1797K]	–	–	–	–	–	saturation concentration for cell growth inhibition (Ramos cells [1]; titration in Xfect transfection/treatment of Ramos cells, in the absence of any cell death (Figures 2D, 2E)): 5.5 µg/mL
ADEAIT	not	not	no such intrinsic cell membrane permeability	–	–	–
AKRAIT [AKRAIT]	–	–	–	intrinsic cell membrane permeabilities	intrinsically membrane permeable	death of transfected cells (Ramos cells [1]): not observed
AVGAGT [AVGAGT]	–	–	–	intrinsic cell membrane permeabilities	permeable through the membrane regardless of sodium pyruvate	cell membrane permeability ([4]; presence of sodium pyruvate): permeable through the membrane regardless of sodium pyruvate
TIARKA	not	not	intrinsic cell membrane permeabilities	–	–	–
